# Experimental data: US20200206344A1, “METHODS FOR MODULATING THE INTERACTION BETWEEN EWS-FLI1 AND BAF COMPLEXES” (Dana-Farber Cancer Institute, Inc., priority 2017, published 2020)
# T1: wild-type FLI1 (Homo sapiens, UniProt Q01543)
# T1 construct: expressed in transfected cells; host or cells: U2OS osteosarcoma cells, lentiviral expression
# T1 sequence (Q01543 1-452): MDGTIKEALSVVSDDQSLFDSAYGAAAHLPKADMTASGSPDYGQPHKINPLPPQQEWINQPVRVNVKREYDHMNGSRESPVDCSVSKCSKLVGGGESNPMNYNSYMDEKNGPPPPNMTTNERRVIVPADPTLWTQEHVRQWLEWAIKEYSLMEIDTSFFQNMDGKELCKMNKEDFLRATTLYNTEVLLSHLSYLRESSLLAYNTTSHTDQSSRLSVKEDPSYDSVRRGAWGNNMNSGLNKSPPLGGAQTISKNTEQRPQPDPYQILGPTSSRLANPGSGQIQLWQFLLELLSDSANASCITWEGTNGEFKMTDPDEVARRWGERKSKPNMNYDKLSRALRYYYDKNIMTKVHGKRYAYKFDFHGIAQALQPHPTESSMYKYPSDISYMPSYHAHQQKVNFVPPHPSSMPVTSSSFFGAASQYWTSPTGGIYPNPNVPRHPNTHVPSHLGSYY
# T2: EWS(YS37)-FLI1 (human)
# T2 construct: EWS-FLI1 with all 37 tyrosines of the prion-like domain changed to serine; also called EWS(Y37)-FLI1; EWS(YS37)-FLI1 mutant protein
# T2 chain: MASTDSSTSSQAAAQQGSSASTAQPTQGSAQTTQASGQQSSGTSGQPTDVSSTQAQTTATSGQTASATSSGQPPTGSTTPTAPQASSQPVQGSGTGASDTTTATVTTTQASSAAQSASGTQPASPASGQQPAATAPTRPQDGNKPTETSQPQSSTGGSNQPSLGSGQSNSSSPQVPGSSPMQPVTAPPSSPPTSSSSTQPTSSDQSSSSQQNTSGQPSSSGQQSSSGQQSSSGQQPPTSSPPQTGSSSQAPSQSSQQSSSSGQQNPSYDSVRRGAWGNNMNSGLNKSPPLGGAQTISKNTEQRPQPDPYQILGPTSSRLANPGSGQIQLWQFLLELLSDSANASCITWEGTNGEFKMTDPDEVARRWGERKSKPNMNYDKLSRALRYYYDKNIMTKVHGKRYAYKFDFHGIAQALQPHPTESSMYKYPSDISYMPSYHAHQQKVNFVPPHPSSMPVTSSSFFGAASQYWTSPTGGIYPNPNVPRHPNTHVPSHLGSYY
# B1: HA-tagged EWS(YS37)-FLI1 (other, not shown: small tags and cut ends)
# chain: T2 chain
# notes: also called HA-tagged mutant EWS-FLI1
# Assays:
# EWS-FLI1 [1] = assay: Biotinylated isoxazole-mediated precipitation; format: biochemical
# Experimental: (§1) These assays were performed as previously described (Kato et al., 2012) with slight modifications. Biotinylated isoxazole (b-isox, Sigma-Aldrich) was reconstituted in DMSO. Briefly, 5-10 million cells were resuspended in 1 mL lysis buffer (20 mM Tris-HCl pH 7.4, 150 mM NaCl, 5 mM MgCl2, 0.5% NP-40 and 10% glycerol supplemented with 1× Protease/Phosphatase inhibitors (Pierce), 0.1 mM PMSF and 20 mM betamercaptoethanol) and incubated for 30 minutes with rotation at +4° C. Protein supernatant was then collected after centrifugation for 15 min at 14000 rpm+4° C. A 5% whole cell extract (WCE) control was collected and the remaining proteins were divided into four aliquots before addition of biotinylated isoxazole at 0, 10, 30 100 uM final concentrations. 100 μg/mL RNase A (Life Technologies) was used for RNase treatment experiments. The Reaction solutions were incubated at +4° C. for 1 h with rotation and centrifuged for 15 min at 14000 rpm+4° C. Supernatant was saved for further analysis and pellets were washed twice in supplemented Lysis buffer before resuspension in Laemmli buffer. WCE, pellets and supernatants were analyzed by 4%-12% Tris-Glycine gradient gels (Life Technologies) and Western blotting was performed using standard protocols.
# wild-type FLI1 = molecular target: T1, wild-type FLI1; assay: Biotinylated isoxazole-mediated precipitation; format: biochemical; settings: U2OS osteosarcoma cell lysates
# Experimental: as §1
# [2] = molecular target: mSWI/SNF (BAF) complexes (human); assay: partial urea denaturation of nuclear extracts before anti-EWSR1 immunoprecipitation, immunoblot
# [3] = molecular target: mSWI/SNF (BAF) complexes (human); assay: cell-based or functional assay
# EWS-FLI1 [4] = assay: BAF155 ChIP-seq after shRNA knockdown of EWS-FLI1; format: cell-based; settings: SK-N-MC cells, versus shGFP
# Target sequence in this assay (as listed by the source): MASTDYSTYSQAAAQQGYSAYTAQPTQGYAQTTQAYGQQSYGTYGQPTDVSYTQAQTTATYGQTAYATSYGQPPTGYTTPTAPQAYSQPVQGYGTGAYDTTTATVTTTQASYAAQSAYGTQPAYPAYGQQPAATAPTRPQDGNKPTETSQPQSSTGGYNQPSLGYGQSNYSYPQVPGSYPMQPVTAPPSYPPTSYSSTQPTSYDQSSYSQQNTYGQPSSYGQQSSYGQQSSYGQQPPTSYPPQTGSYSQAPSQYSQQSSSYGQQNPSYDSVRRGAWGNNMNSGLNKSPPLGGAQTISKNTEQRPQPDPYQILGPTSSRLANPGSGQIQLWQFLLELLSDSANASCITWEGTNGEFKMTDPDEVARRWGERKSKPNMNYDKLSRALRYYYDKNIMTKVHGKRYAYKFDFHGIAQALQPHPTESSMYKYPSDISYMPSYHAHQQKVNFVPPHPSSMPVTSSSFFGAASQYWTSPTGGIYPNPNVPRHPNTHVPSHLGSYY
# EWS(YS37)-FLI1 = molecular target: T2, EWS(YS37)-FLI1; assay: co-immunoprecipitation with anti-V5 antibodies, HEK-293-T cells co-expressing HA- and V5-tagged proteins
molecule,measurement,setting,value
"O=C1N[C@H]2[C@H](CS[C@H]2CCCCC(=O)OCCCCCCNC(=O)c2cc(-c3cccs3)on2)N1 [b-isox, biotinylated isoxazole]",precipitation of EWS-FLI1,"EWS-FLI1 [1]; 100 uM b-isox, Ewing sarcoma cell lysates",precipitates
same,"precipitation of EWS-FLI1, dose dependence","EWS-FLI1 [1]; Ewing sarcoma cell lysates, b-isox 0, 10, 30, 100 uM",dose-dependent
same,precipitation of lentivirally expressed EWS-FLI1,EWS-FLI1 [1]; U2OS osteosarcoma cell lysates,precipitates
same,precipitation of lentivirally expressed wild-type FLI1,wild-type FLI1,but not wild-type FLI1
wild-type EWSR1 (from UniProt Q01844 1-656),urea concentration at which the interactions were decreased,[2],0.5 M
EWS-FLI1 fusion protein,"BAF155 ChIP-seq peak occupancy at EWS-FLI1-bound GGAA repeats, SK-N-MC cells",[3],2 fold
"shEWS-FLI1: shRNA, target FLI1, position 1917, sequence CGTCATGTTCTGGTTTGAGAT",BAF155 occupancy at EWS-FLI1 bound GGAA repeats,EWS-FLI1 [4],decreased specifically at GGAA repeat regions
B1,binding result,EWS(YS37)-FLI1,binds
